Reference: ChEMBL document CHEMBL1155795, “Revisiting the sponge sources, stereostructure, and biological activity of cyclocinamide a” (J Nat Prod, 2008)
Starred links: 1 amine or outer side, 2 acyl side, 3 side chain; linkers in the order of their positions; H or OH if unused. Positions of bridges follow the written chain, without caps; N, C: chain ends. Non-standard residues stand in square brackets, D forms with d. Residues, ends and D or L forms follow the SMILES beside them. *: point of attachment. Trp(5-Br) = N[C@@H](Cc1c[nH]c2ccc(Br)cc12)C(=O)O; isoSer(2S) = O=C([C@@H](O)CN[*:1])[*:2]; X1 = Cn1cc(Cl)cc1C(=O)*; Dap = NC[C@H](N)C(=O)O

Legend:
[1] = Cytotoxicity against mouse CFU-GM cells assessed as zone of inhibition at 90 ug/disk by disk diffusion soft agar colony forming assay; type: functional; conditions: read-out: IZ
[2] = Cytotoxicity against human […] cells assessed as zone of inhibition at 90 ug/disk by disk diffusion soft agar colony forming assay; type: functional; conditions: read-out: IZ
HCT-116 = test: Cytotoxicity against human HCT116 cells; type: functional, cell-based

## Cn1cc(Cl)cc1C(=O)NCC(=O)N[C@H]1CNC(=O)[C@H](Cc2c[nH]c3ccc(Br)cc23)NC(=O)[C@@H](O)CNC(=O)[C@H](CC(N)=O)NC1=O (X1-G[Dap]N[isoSer(2S)][Trp(5-Br)]; lactam 2-C)
[1]
  zone of inhibition at 90 µg/disc: 16 mm
[2]
  zone of inhibition at 90 µg/disc: 26 mm
HCT-116
  IC50: > 10 µg/mL
